According to ChEMBL document CHEMBL1124085, “Flavins as potential antimalarials. 1. 10-(Halophenyl)-3-methylflavins” (1988):

What was measured:
Type in all cases: functional
[1] = tested on: Mus musculus; experiment: Oral antimalarial activity against Plasmodium vinckei vinckei in mice (Mus musculus) measured as % cured and increase in MST (days) at 100 mg/kg dose.
[2] = tested on: Mus musculus; experiment: Parenteral antimalarial activity against Plasmodium vinckei vinckei in mice (Mus musculus) measured as % cured and increase in MST (days) at 10 mg/kg dose.
[3] = tested on: Mus musculus; experiment: Parenteral antimalarial activity against Plasmodium vinckei in mice (Mus musculus) measured as % cured and increase in MST (days) at 30 mg/kg dose.
[4] = tested on: Mus musculus; experiment: Oral antimalarial activity against Plasmodium vinckei in mice (Mus musculus) measured as % cured and increase in MST (days) at 25 mg/kg dose.
[5] = tested on: Mus musculus; experiment: Oral antimalarial activity against Plasmodium vinckei vinckei in mice (Mus musculus) measured as increase in mean survival time at 100 mg/kg dose.
[6] = tested on: Mus musculus; experiment: Parenteral antimalarial activity against Plasmodium vinckei in mice (Mus musculus) measured as % cured and increase in MST (days) at 25 mg/kg dose.
[7] = tested on: Mus musculus; experiment: Oral antimalarial activity against Plasmodium vinckei in mice (Mus musculus) measured as increase in mean survival time at 25 mg/kg dose.
[8] = tested on: Mus musculus; experiment: Oral antimalarial activity against Plasmodium vinckei vinckei in mice (Mus musculus) measured as % cured and increase in MST (days) at 150 mg/kg dose.
[9] = tested on: Mus musculus; experiment: Parenteral antimalarial activity against Plasmodium vinckei vinckei in mice (Mus musculus) measured as % cured and increase in MST (days) at 25 mg/kg dose.
[10] = tested on: Mus musculus; experiment: Oral antimalarial activity against Plasmodium vinckei vinckei in mice (Mus musculus) measured as increase in mean survival time at 50 mg/kg dose.
[11] = tested on: Mus musculus; experiment: Parenteral antimalarial activity against Plasmodium vinckei vinckei in mice (Mus musculus) measured as % cured and increase in MST (days) at 20 mg/kg dose.
[12] = tested on: Mus musculus; experiment: Parenteral antimalarial activity against Plasmodium vinckei in mice (Mus musculus) measured as % cured and increase in MST (days) at 15 mg/kg dose.
[13] = tested on: Mus musculus; experiment: Oral antimalarial activity against Plasmodium vinckei in mice (Mus musculus) measured as % cured and increase in MST (days) at 50 mg/kg dose.
[14] = tested on: Mus musculus; experiment: Parenteral antimalarial activity against Plasmodium vinckei vinckei in mice (Mus musculus) measured as % cured and increase in MST (days) at 30 mg/kg dose.
[15] = tested on: Mus musculus; experiment: Oral antimalarial activity against Plasmodium vinckei in mice (Mus musculus) measured as % cured and increase in MST (days) at 75 mg/kg dose.
[16] = tested on: Mus musculus; experiment: Oral antimalarial activity against Plasmodium vinckei vinckei in mice (Mus musculus) measured as increase in mean survival time at 75 mg/kg dose.
[17] = tested on: Mus musculus; experiment: Parenteral antimalarial activity against Plasmodium vinckei vinckei in mice (Mus musculus) measured as increase in mean survival time at 20 mg/kg dose.
[18] = tested on: Mus musculus; experiment: Parenteral antimalarial activity against Plasmodium vinckei vinckei in mice (Mus musculus) measured as increase in mean survival time at 25 mg/kg dose.
[19] = tested on: Mus musculus; experiment: Parenteral antimalarial activity against Plasmodium vinckei in mice (Mus musculus) measured as increase in mean survival time at 10 mg/kg dose.
[20] = tested on: Mus musculus; experiment: Parenteral antimalarial activity against Plasmodium vinckei in mice (Mus musculus) measured as increase in mean survival time at 15 mg/kg dose.
[21] = tested on: Mus musculus; experiment: Parenteral antimalarial activity against Plasmodium vinckei vinckei in mice (Mus musculus) measured as increase in mean survival time at 30 mg/kg dose.
[22] = tested on: Mus musculus; experiment: Oral antimalarial activity against Plasmodium vinckei in mice (Mus musculus) measured as increase in mean survival time at 150 mg/kg dose.

SMILES	Cured [1]	Cured [2]	MST [2]	MST [3]	Cured [4]	MST [5]	MST [6]	MST [7]	Cured [8]	Cured [9]	MST [10]	Cured [11]	Cured [12]	MST [12]	Cured [13]	Cured [14]	Cured [15]	MST [16]	MST [17]	MST [22]	also measured
Cn1c(=O)nc2n(-c3ccc(Cl)c(Cl)c3)c3ccccc3nc-2c1=O	0%	0%	0.5 days	1 days	0%	0.5 days	0 days	0 days	40%	80%	0 days	100%	60%	0.5 days	0%	60%	0%	0.5 days			
Cn1c(=O)nc2n(-c3cc(Cl)ccc3Cl)c3ccccc3nc-2c1=O	0%	0%			0%	0 days		0 days	0%	0%	0 days	0%	0%		0%	0%	0%	0 days	0 days	0 days	MST [18]: 0 days; MST [19]: 0 days; MST [20]: 0 days; MST [21]: 0 days
Cn1c(=O)nc2n(-c3ccc(Cl)cc3Cl)c3ccccc3nc-2c1=O	80%	0%			0%	1.5 days		0 days	60%	0%	1.3 days	0%	0%		0%	0%	40%	1 days	0 days	1.5 days	MST [18]: -1.2 days; MST [19]: 1.7 days; MST [20]: 0.5 days; MST [21]: -1 days
O=c1nc2n(-c3ccc(Cl)cc3)c3ccccc3nc-2c(=O)[nH]1	0%	0%	0 days	0 days	0%	0 days	0 days	0 days	0%	0%	0 days	0%	0%	0 days	0%	0%	0%	0 days		0 days	MST [11]: 0 days
